# Test results published in ChEMBL document CHEMBL3885861, “Open TG-GATES”.
# Organism: Rattus norvegicus
# Assay: Open TG-GATES - Regimen: Single
# Assay type: toxicity, organism-based, Sprague-Dawley
# Set-up: regimen Single, gender Male, age 6 weeks
# Settings: in vivo, po, 300 mg/kg, route gavage, dose level High; for APTT / Bas / Eos / Fbg / Hb / Ht / Lym / MCH / MCHC / MCV / Mono / Neu / PT / Plat / RBC / Ret / WBC: tissue Blood; for KIDNEY_L / KIDNEY_R / KIDNEY_TOTAL: tissue Kidney; for LIVER: tissue Liver; for A/G / ALP / ALT / AST / BUN / CRE / Ca / Cl / DBIL / GLC / IP / K / LDH / Na / PL / RALB / TBIL / TC / TG / TP / gamma-GTP: tissue Plasma
compound,measurement,setting,value
ClC(Cl)(Cl)Cl [CARBON TETRACHLORIDE],TERMINAL_BW,3 h,206.7 g
same,APTT,3 h,18.3 s
same,Bas,3 h,0%
same,Eos,3 h,1%
same,Fbg,3 h,242 mg/dL
same,Hb,3 h,13 g/dL
same,Ht,3 h,37.2%
same,Lym,3 h,74.4%
same,MCH,3 h,21.8 pg
same,MCHC,3 h,34.9%
same,MCV,3 h,62.4 fL
same,Mono,3 h,2.2%
same,Neu,3 h,21.8%
same,PT,3 h,12.5 s
same,Plat,3 h,125.5 x10_4/uL
same,RBC,3 h,595.8 x10_4/ul
same,Ret,3 h,8.9%
same,WBC,3 h,76.7 x10_2/uL
same,KIDNEY_L,3 h,0.9 g
same,KIDNEY_R,3 h,0.9 g
same,KIDNEY_TOTAL,3 h,1.8 g
same,LIVER,3 h,9.4 g
same,A/G,3 h,1.6
same,ALP,3 h,909.4 IU/L
same,ALT,3 h,39.4 IU/L
same,AST,3 h,67.8 IU/L
same,BUN,3 h,12.2 mg/dL
same,CRE,3 h,0.4 mg/dL
same,Ca,3 h,10.5 mg/dL
same,Cl,3 h,104 meq/L
same,DBIL,3 h,0.1 mg/dL
same,GLC,3 h,187.4 mg/dL
same,IP,3 h,10.1 mg/dL
same,K,3 h,3.8 meq/L
same,LDH,3 h,201.4 IU/L
same,Na,3 h,140 meq/L
same,PL,3 h,156.4 mg/dL
same,RALB,3 h,3.3 g/dL
same,TBIL,3 h,0.2 mg/dL
same,TC,3 h,79.2 mg/dL
same,TG,3 h,90.8 mg/dL
same,TP,3 h,5.4 g/dL
same,gamma-GTP,3 h,1.2 IU/L
same,TERMINAL_BW,6 h,208.2 g
same,APTT,6 h,18.5 s
same,Bas,6 h,0%
same,Eos,6 h,0.8%
same,Fbg,6 h,231.4 mg/dL
same,Hb,6 h,13.1 g/dL
same,Ht,6 h,37.9%
same,Lym,6 h,77.2%
same,MCH,6 h,21.3 pg
same,MCHC,6 h,34.6%
same,MCV,6 h,61.7 fL
same,Mono,6 h,3%
same,Neu,6 h,18.4%
same,PT,6 h,13 s
same,Plat,6 h,125.2 x10_4/uL
same,RBC,6 h,614.2 x10_4/ul
same,Ret,6 h,8.6%
same,WBC,6 h,96.7 x10_2/uL
same,KIDNEY_L,6 h,0.9 g
same,KIDNEY_R,6 h,0.9 g
same,KIDNEY_TOTAL,6 h,1.8 g
same,LIVER,6 h,9.1 g
same,A/G,6 h,1.7
same,ALP,6 h,830.8 IU/L
same,ALT,6 h,29.8 IU/L
same,AST,6 h,65.2 IU/L
same,BUN,6 h,10.4 mg/dL
same,CRE,6 h,0.4 mg/dL
same,Ca,6 h,10.5 mg/dL
same,Cl,6 h,103.2 meq/L
same,DBIL,6 h,0.086 mg/dL
same,GLC,6 h,201.8 mg/dL
same,IP,6 h,10.1 mg/dL
same,K,6 h,4 meq/L
same,LDH,6 h,205.8 IU/L
same,Na,6 h,139.6 meq/L
same,PL,6 h,150.4 mg/dL
same,RALB,6 h,3.4 g/dL
same,TBIL,6 h,0.1 mg/dL
same,TC,6 h,73 mg/dL
same,TG,6 h,68.2 mg/dL
same,TP,6 h,5.5 g/dL
same,gamma-GTP,6 h,1.2 IU/L
same,TERMINAL_BW,9 h,203.7 g
same,APTT,9 h,19.1 s
same,Bas,9 h,0%
same,Eos,9 h,1%
same,Fbg,9 h,232.6 mg/dL
same,Hb,9 h,13.3 g/dL
same,Ht,9 h,37.9%
same,Lym,9 h,80.4%
same,MCH,9 h,21.5 pg
same,MCHC,9 h,35%
same,MCV,9 h,61.7 fL
same,Mono,9 h,2.8%
same,Neu,9 h,16%
same,PT,9 h,12.5 s
same,Plat,9 h,137.8 x10_4/uL
same,RBC,9 h,615.2 x10_4/ul
same,Ret,9 h,8.7%
same,WBC,9 h,72.4 x10_2/uL
same,KIDNEY_L,9 h,0.9 g
same,KIDNEY_R,9 h,0.9 g
same,KIDNEY_TOTAL,9 h,1.8 g
same,LIVER,9 h,8.8 g
same,A/G,9 h,1.5
same,ALP,9 h,987.6 IU/L
same,ALT,9 h,28.4 IU/L
same,AST,9 h,63.2 IU/L
same,BUN,9 h,9.4 mg/dL
same,CRE,9 h,0.4 mg/dL
same,Ca,9 h,10.5 mg/dL
same,Cl,9 h,103 meq/L
same,DBIL,9 h,0.1 mg/dL
same,GLC,9 h,193 mg/dL
same,IP,9 h,10.4 mg/dL
same,K,9 h,3.9 meq/L
same,LDH,9 h,200.2 IU/L
same,Na,9 h,139.4 meq/L
same,PL,9 h,150.8 mg/dL
same,RALB,9 h,3.3 g/dL
same,TBIL,9 h,0.2 mg/dL
same,TC,9 h,71 mg/dL
same,TG,9 h,80.2 mg/dL
same,TP,9 h,5.5 g/dL
same,gamma-GTP,9 h,1.2 IU/L
same,TERMINAL_BW,24 h,212.9 g
same,APTT,24 h,19.3 s
same,Bas,24 h,0%
same,Eos,24 h,1%
same,Fbg,24 h,225.4 mg/dL
same,Hb,24 h,13.5 g/dL
same,Ht,24 h,38.6%
same,Lym,24 h,79%
same,MCH,24 h,22.4 pg
same,MCHC,24 h,34.8%
same,MCV,24 h,64.4 fL
same,Mono,24 h,3.8%
same,Neu,24 h,15.6%
same,PT,24 h,12.6 s
same,Plat,24 h,131.5 x10_4/uL
same,RBC,24 h,599.6 x10_4/ul
same,Ret,24 h,7.8%
same,WBC,24 h,110.3 x10_2/uL
same,KIDNEY_L,24 h,1 g
same,KIDNEY_R,24 h,1 g
same,KIDNEY_TOTAL,24 h,2 g
same,LIVER,24 h,10.2 g
same,A/G,24 h,1.6
same,ALP,24 h,1310.2 IU/L
same,ALT,24 h,42.2 IU/L
same,AST,24 h,75 IU/L
same,BUN,24 h,16.4 mg/dL
same,CRE,24 h,0.4 mg/dL
same,Ca,24 h,10.8 mg/dL
same,Cl,24 h,103.8 meq/L
same,DBIL,24 h,0.08 mg/dL
same,GLC,24 h,183.8 mg/dL
same,IP,24 h,8 mg/dL
same,K,24 h,3.9 meq/L
same,LDH,24 h,192.6 IU/L
same,Na,24 h,140 meq/L
same,PL,24 h,139.6 mg/dL
same,RALB,24 h,3.5 g/dL
same,TBIL,24 h,0.1 mg/dL
same,TC,24 h,61.4 mg/dL
same,TG,24 h,69.6 mg/dL
same,TP,24 h,5.6 g/dL
same,gamma-GTP,24 h,1 IU/L
